Reference: patent US10647680B2, “Urea compound, preparation method therefor and medical use thereof” (Ancureall Pharmaceutical (Shanghai) Co., Ltd., priority 2016, dated 2020)

What was measured:
[1] = system: RAMOS (positive expression of Brutons tyrosine protein kinase); test: In vitro growth inhibition (GI50), RAMOS; type: cell-based; conditions: Homo sapiens, Cell lines of leukemia, read-out: GI 50 Ramos BTK
[2] = system: MOLM-13 (FLT3 ITD+/− mutant type); test: In vitro growth inhibition (GI50), MOLM-13; type: cell-based, human; conditions: Homo sapiens, MOLM-13; Cell lines of leukemia; read-out: GI 50 MOLM-13 FLT3 (ITD+/−)
U937 (FLT3 wild-type) = test: In vitro growth inhibition (GI50), U937; type: cell-based; conditions: Homo sapiens, U-937; Cell lines of leukemia; read-out: GI 50 U937 FLT 3(WT)
RS4; 11 (FLT3 wild type) = test: In vitro growth inhibition (GI50), RS4; 11; type: cell-based, human; conditions: Homo sapiens, RS4-11; Cell lines of leukemia; read-out: GI 50 RS4: 11 FLT3 (WT)
[3] = system: MV4-11 (FLT3 ITD+/+ mutant type); test: In vitro growth inhibition (GI50), MV4-11; type: cell-based, human; conditions: Homo sapiens, MV4-11; Cell lines of leukemia; read-out: GI 50 MV4-11 FLT3 (ITD +/+)
[4] = system: KG-1 (expressing FGFR1OP2-FGFR1 fusion protein); test: In vitro growth inhibition (GI50), KG-1; type: cell-based; conditions: Homo sapiens; Cell lines of leukemia; read-out: GI 50 KG-1 FGFR1OP 2-FGFR1
HL-60 (FLT3 wild type) = test: In vitro growth inhibition (GI50), HL-60; type: cell-based; conditions: Homo sapiens, Cell lines of leukemia, read-out: GI 50 HL60 FLT3 (WT)
How it was run: (§1)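 After 3–5 days of treatment (top concentration 5,000 nM, serially diluted 2- or 10-fold to 0.01 nM, solvent ≤1%), viability was read by CCK8 at OD450. Growth rate was normalised to the time-zero and solvent-control wells, and GI50 was derived from the curve. Cultures in RPMI1640 + 10% FBS.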

[5] = system: OCI-AML3 (NPMc+ mutant type); test: In vitro growth inhibition (GI50), OCI-AML3; type: cell-based; conditions: Homo sapiens, OCI-AML-3; Cell lines of leukemia; read-out: GI 50 OCI- AML3 NPMc+
[6] = system: Kasumi-1 (c-Kit N822K mutant type); test: In vitro growth inhibition (GI50), Kasumi-1; type: cell-based; conditions: Homo sapiens, Cell lines of leukemia, read-out: GI 50 Kasumi-1 Kit (N822K)
How it was run: as §1

[7] = system: K562 (FLT3 negative expression, positive expression of BCR-ABL fusion protein); test: In vitro growth inhibition (GI50), K562; type: cell-based; conditions: Homo sapiens, Cell lines of leukemia, read-out: GI 50 K562 BCR-ABL

GI50 [1] [nM]	GI50 [2] [nM]	GI50 (U937 (FLT3 wild-type)) [nM]	GI50 (RS4; 11 (FLT3 wild type)) [nM]	GI50 [3] [nM]	GI50 (HL-60 (FLT3 wild type)) [nM]	GI50 [5] [nM]	GI50 [7] [nM]	Structure (SMILES)	GI50 [4] [nM]	GI50 [6] [nM]
> 1000	10 to 100	> 1000	> 1000	10 to 100	> 1000	> 1000	> 1000	CC(C)(C)c1cc(NC(=O)Nc2ccc(-n3cnc4ccccc43)cc2)n(-c2ccccn2)n1 [Compound 110, 1-(4-benzimidazol-1-yl-phenyl)-3-(5-tert-butyl-2-pyridin-2-yl-2H-pyrazol-3-yl)-urea]	> 1000	> 1000
> 1000	10 to 100	> 1000	> 1000	10 to 100	> 1000	> 1000	> 1000	COCCOc1ccc2ncn(-c3ccc(NC(=O)n4nc(C(C)(C)C)cc4N)cc3)c2c1 [Compound 128, 5-amino-3-tert-butyl-pyrazol-1-carboxylic acid {4-[6-(2-methoxyl-ethoxyl)-benzimidazol-1-yl]-phenyl}-amide]	> 1000	> 1000
> 1000	100 to 1000	> 1000	> 1000	100 to 1000	> 1000	> 1000	> 1000	CC(C)(C)c1ccn(C(=O)Nc2ccc(-n3cnc4ccccc43)cc2)n1 [Compound 130, 3-tert-butyl-pyrazol-1-carboxylic acid (4-benzimidazol-1-yl-phenyl)-amide]	> 1000	> 1000
> 1000	0.1 to 1	> 1000	100 to 1000	0.1 to 1	> 1000	> 1000	100 to 1000	CC(C)(C)c1cc(NC(=O)Nc2ccc(-n3cnc4cc(F)ccc43)cc2)[nH]n1 [Compound 69, 1-(5-tert-butyl-2H-pyrazol-3-yl)-3-[4-(5-fluoro-benzimidazol-1-yl)-phenyl]-urea]	> 1000	> 1000
> 1000	0.1 to 1	> 1000	> 1000	0.1 to 1	> 1000	> 1000	> 1000	CC(C)(C)c1cc(NC(=O)Nc2ccc(-n3cnc4cc(OCCN5CCCCC5)ccc43)cc2)[nH]n1 [Compound 90, 1-(5-tert-butyl-2H-pyrazol-3-yl)-3-{4-[5-(2-piperidin-1-yl-ethoxyl)-benzimidazol-1-yl]-phenyl}-urea]	> 1000	> 1000
> 1000	0.1 to 1	> 1000	> 1000	0.1 to 1	> 1000	> 1000	> 1000	CC(C)(C)c1cc(NC(=O)Nc2ccc(-n3cnc4ccccc43)cc2)n(-c2ccccc2)n1 [Compound 104, 1-(4-benzimidazol-1-yl-phenyl)-3-(5-tert-butyl-2-phenyl-2H-pyrazol-3-yl)-urea]	> 1000	> 1000
> 1000	0.1 to 1	> 1000	> 1000	0.1 to 1	> 1000	> 1000	> 1000	CC1(COc2ccc3c(c2)ncn3-c2ccc(NC(=O)Nc3cc(C(C)(C)C)on3)cc2)COC1 [Compound 9, 1-(5-tert-butyl-isoxazol-3-yl)-3-{4-[5-(3-methyl-oxetan-3-ylmethoxy)-benzimidazol-1-yl]-phenyl]urea]	> 1000	> 1000
> 1000	1 to 10	> 1000	> 1000	1 to 10	> 1000	> 1000	> 1000	CC(C)(C)c1cc(NC(=O)Nc2ccc(-n3cnc4ccccc43)cc2)n(CCO)n1 [Compound 103, 1-(4-benzimidazol-1-yl-phenyl)-3-[5-tert-butyl-2-(2-hydroxy-ethyl)-2H-pyrazol-3-yl]-urea]	> 1000	> 1000
100 to 1000	1 to 10	> 1000	> 1000	1 to 10	100 to 1000	> 1000	> 1000	CC(C)(C)c1cc(NC(=O)Nc2ccc(-n3cnc4cc(OCCN5CCCCCC5)ccc43)cc2)no1 [Compound 18, 1-{4-[5-(2-azepan-1-yl-ethoxyl)-benzimidazol-1-yl]-phenyl}3-(5-tert-butyl-isoxazole-3-yl)-urea]	100 to 1000	100 to 1000

Further lines, the compound ahead of its results:

Structure (SMILES)	GI50 [1] [nM]	GI50 [2] [nM]	GI50 (U937 (FLT3 wild-type)) [nM]	GI50 (RS4; 11 (FLT3 wild type)) [nM]	GI50 [3] [nM]	GI50 (HL-60 (FLT3 wild type)) [nM]	GI50 [5] [nM]	GI50 [7] [nM]	GI50 [4] [nM]	GI50 [6] [nM]
CC(C)(C)c1cc(NC(=O)Nc2ccc(-n3cnc4ccccc43)cc2)n(-c2ccc(F)cc2)n1 [Compound 108, 1-(4-benzimidazol-1-yl-phenyl)-3-[5-tert-butyl-2-(4-fluoro-phenyl)-2H-pyrazol-3-yl]-urea]	> 1000	10 to 100	> 1000	100 to 1000	10 to 100	> 1000	100 to 1000	100 to 1000	> 1000	> 1000
CC(C)(C)c1cc(NC(=O)Nc2ccc(-n3nnc4ccccc43)cc2)no1 [Compound 48, 1-(4-benzotriazol-1-yl-phenyl)-3-(5-tert-butyl-isoxazol-3-yl)-urea]	> 1000	100 to 1000	> 1000	> 1000	100 to 1000	> 1000	> 1000	> 1000	> 1000	> 1000
CC(C)(C)c1cc(NC(=O)Nc2ccc(-n3ccc4ccccc43)cc2)no1 [Compound 44, 1-(5-tert-butyl-isoxazol-3-yl)-3-(4-indol-1-yl-phenyl)-urea]	> 1000	> 1000	> 1000	> 1000	> 1000	> 1000	> 1000	> 1000	> 1000	> 1000
CC(C)(C)c1cc(NC(=O)Nc2ccc(-n3cnc4ccccc43)c(Cl)c2)no1 [Compound 38, 1-(4-benzimidazol-1-yl-3-chloro-phenyl)-3-(5-tert-butyl-isoxazol-3-yl)-urea]	> 1000	100 to 1000	> 1000	> 1000	100 to 1000	> 1000	> 1000	> 1000	> 1000	> 1000
O=C(Nc1ccc(-n2cnc3ccccc32)cc1)Nc1cc(C2CC2)n[nH]1 [Compound 66, 1-(4-benzimidazol-1-yl-phenyl)-3-(5-cyclopropyl-2H-pyrazol-3-yl)-urea]	> 1000	10 to 100	> 1000	> 1000	10 to 100	> 1000	> 1000	> 1000	> 1000	> 1000
CC(C)(C)c1cc(NC(=O)Nc2ccc(-n3cnc4cc(C(F)(F)F)ccc43)cc2)[nH]n1 [Compound 70, 1-(5-tert-butyl-2H-pyrazol-3-yl)-3-[4-(5-trifluoromethyl-benzimidazol-1-yl)-phenyl]-urea]	> 1000	1 to 10	> 1000	> 1000	1 to 10	> 1000	> 1000	> 1000	> 1000	> 1000
CC(C)(C)c1cc(NC(=O)Nc2ccc(-n3cnc4cc(C(F)(F)F)cnc43)cc2)no1 [Compound 52, 1-(5-tert-butyl-isoxazol-3-yl)-3-[4-(6-trifluoromethyl-imidazo[4,5-b]pyridin-3-yl)-phenyl]-urea]	> 1000	1 to 10	> 1000	> 1000	1 to 10	> 1000	> 1000	> 1000	> 1000	> 1000
CC(C)(C)c1cc(NC(=O)Nc2ccc(-n3cnc4ccccc43)c(F)c2)no1 [Compound 39, 1-(4-benzimidazol-1-yl-3-fluoro-phenyl)-3-(5-tert-butyl-isoxazol-3-yl)-urea]	> 1000	100 to 1000	> 1000	> 1000	100 to 1000	> 1000	> 1000	> 1000	> 1000	> 1000
